Legend:
HEK293 = assay: Cytotoxicity against human HEK293 cells assessed as cell viability after 24 hrs by MTT assay; assay type: functional, cell-based; conditions: HEK293, 24 h
Estrogen receptor = molecular target: T1, Estrogen receptor (Homo sapiens, UniProt P03372); assay: Binding affinity to human recombinant ERalpha by competitive fluorometric binding assay
T1 sequence (P03372 whole entry): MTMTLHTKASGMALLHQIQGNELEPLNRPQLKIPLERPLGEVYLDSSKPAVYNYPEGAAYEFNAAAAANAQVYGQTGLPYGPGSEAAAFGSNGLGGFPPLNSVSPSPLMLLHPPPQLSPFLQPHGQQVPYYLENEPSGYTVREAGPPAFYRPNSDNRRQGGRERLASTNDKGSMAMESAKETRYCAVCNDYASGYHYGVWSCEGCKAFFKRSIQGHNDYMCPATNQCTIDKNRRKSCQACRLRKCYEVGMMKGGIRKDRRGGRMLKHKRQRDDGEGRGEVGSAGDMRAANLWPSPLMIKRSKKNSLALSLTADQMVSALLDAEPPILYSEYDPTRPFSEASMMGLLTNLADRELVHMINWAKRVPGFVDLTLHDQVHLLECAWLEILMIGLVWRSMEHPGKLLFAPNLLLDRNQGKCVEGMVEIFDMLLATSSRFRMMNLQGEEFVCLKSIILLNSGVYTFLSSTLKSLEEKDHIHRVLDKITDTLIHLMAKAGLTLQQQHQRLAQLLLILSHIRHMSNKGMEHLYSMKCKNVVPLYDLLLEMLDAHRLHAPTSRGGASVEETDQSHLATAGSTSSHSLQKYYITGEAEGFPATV

Chorioallantoic membrane = assay: Anti-angiogenesis activity in chicken embryo chorioallantonic membrane measured after 2 hrs by CAM assay; assay type: functional; conditions: Gallus gallus
Estrogen receptor beta = Estrogen receptor beta (Homo sapiens, UniProt Q92731)
Description: Binding affinity to human recombinant ERbeta by competitive fluorometric binding assay

MCF7 = assay: cells; conditions: Homo sapiens, MCF7, 24 h
Description: Antiproliferative activity against human MCF7 cells assessed as cell viability after 24 hrs by MTT assay

MDA-MB-231 = assay: cells; conditions: Homo sapiens, MDA-MB-231, 24 h
Description: Antiproliferative activity against human MDA-MB-231 cells assessed as cell viability after 24 hrs by MTT assay

[1] = Selectivity index, ratio of IC50 for human recombinant ERbeta to human recombinant ERalpha

Chain of Estrogen receptor beta (Q92731 whole entry): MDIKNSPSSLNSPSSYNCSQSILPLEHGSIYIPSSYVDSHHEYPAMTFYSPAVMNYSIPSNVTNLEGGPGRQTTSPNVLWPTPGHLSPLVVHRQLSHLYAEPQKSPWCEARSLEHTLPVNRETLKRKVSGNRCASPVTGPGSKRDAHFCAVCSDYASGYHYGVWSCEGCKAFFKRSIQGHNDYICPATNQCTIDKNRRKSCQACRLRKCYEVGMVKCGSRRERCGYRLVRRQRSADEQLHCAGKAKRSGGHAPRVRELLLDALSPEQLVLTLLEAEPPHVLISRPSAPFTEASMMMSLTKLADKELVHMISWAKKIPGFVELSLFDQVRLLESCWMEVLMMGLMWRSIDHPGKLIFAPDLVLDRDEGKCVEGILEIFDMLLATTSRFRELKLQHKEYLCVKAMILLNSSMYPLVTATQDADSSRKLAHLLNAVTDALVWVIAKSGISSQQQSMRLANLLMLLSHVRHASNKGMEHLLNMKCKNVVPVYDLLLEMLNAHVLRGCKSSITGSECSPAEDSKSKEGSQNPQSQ

Row | SMILES | IC50 (HEK293) [µM] | IC50 (Estrogen receptor) [nM] | IC50 (Chorioallantoic membrane) [µM] | IC50 (Estrogen receptor beta) [µM] | IC50 (MCF7) [µM] | IC50 (MDA-MB-231) [µM] | Ratio IC50 [1]
1 | CN1C(=O)N(CCN2CCNCC2)C(c2ccc(C(F)(F)F)cc2)C2=C1c1ccccc1C2=O (stereo not given) | 44.3 | 21 | 19.1 | > 10 | 0.89 | > 50 | 
2 | CN(Cc1cnc2nc(N)nc(N)c2n1)c1ccc(C(=O)N[C@@H](CCC(=O)O)C(=O)O)cc1 [METHOTREXATE] |  |  | 3.65 |  |  |  | 
3 | CN1C(=O)N(N(C)CCC(Oc2ccc(C(F)(F)F)cc2)c2ccccc2)C(c2ccc(C(F)(F)F)cc2)C2=C1c1ccccc1C2=O (stereo not given) |  | 1330 |  | > 10 | 6.98 | > 50 | 
4 | CN1CCN(CCN2C(=O)N(C)C3=C(C(=O)c4ccccc43)C2c2ccc(C(F)(F)F)cc2)CC1 (stereo not given) | 38.5 | 72 |  | > 10 | 1.48 | > 50 | 
5 | CN1C(=O)NC(c2ccc(OCCN(CCO)CCO)cc2)C2=C1c1ccccc1C2=O (stereo not given) | > 50 | 7.1 | 3.52 | 0.53 | 0.07 | > 50 | 
6 | CN(C)CCOc1ccc(C2C3=C(c4ccccc4C3=O)N(C)C(=O)N2CC(F)(F)F)cc1 (stereo not given) |  | 7550 |  | > 10 | 14.3 | 31.6 | 
7 | CN1CCN(CCOc2ccc(C3C4=C(c5ccccc5C4=O)N(C)C(=O)N3CC(F)(F)F)cc2)CC1 (stereo not given) |  | 3010 |  | > 10 | 16.1 | 28.4 | 
8 | CN1C(=O)N(CC(F)(F)F)C(c2ccc(OCCN3CCN(CC(F)(F)F)CC3)cc2)C2=C1c1ccccc1C2=O (stereo not given) |  | 930 | 6.94 | > 10 | 5.17 | > 50 | 
9 | CN(C)CCOc1ccc(C2NC(=O)N(C)C3=C2C(=O)c2ccccc23)cc1 (stereo not given) |  | 3170 |  | > 10 | 11.3 | 21.1 | 
10 | CN1C(=O)NC(c2ccc(O)cc2)C2=C1c1ccccc1C2=O (stereo not given) |  | 36100 |  | > 10 |  |  | 
11 | CN1CCN(CCOc2ccc(C3NC(=O)N(C)C4=C3C(=O)c3ccccc34)cc2)CC1 (stereo not given) |  | 490 |  | > 10 | 14.4 | > 50 | 
12 | CN1C(=O)N(CCN(CCO)CCO)C(c2ccc(C(F)(F)F)cc2)C2=C1c1ccccc1C2=O (stereo not given) | > 50 | 4 | 0.86 | 0.31 | 0.081 | > 50 | 
13 | CN(C)CCN1C(=O)N(C)C2=C(C(=O)c3ccccc32)C1c1ccc(C(F)(F)F)cc1 (stereo not given) |  | 2090 |  | > 10 | 13.2 | > 50 | 
14 | CN(CCOc1ccc(C2NC(=O)N(C)C3=C2C(=O)c2ccccc23)cc1)CCC(Oc1ccc(C(F)(F)F)cc1)c1ccccc1 (stereo not given) |  | 810 |  | > 10 | 11.2 | > 50 | 
15 | CN1C(=O)NC(c2ccc(OCCN3CCN(CC(F)(F)F)CC3)cc2)C2=C1c1ccccc1C2=O (stereo not given) |  | 1290 |  | > 10 | 6.25 | > 50 | 
16 | CC/C(=C(\c1ccccc1)c1ccc(OCCN(C)C)cc1)c1ccccc1 [TAMOXIFEN] | 26.3 |  |  |  | 8.53 | 14.9 | 0.054
17 | CN1C(=O)NC(c2ccc(OCCN3CCNCC3)cc2)C2=C1c1ccccc1C2=O (stereo not given) | 37.5 | 440 | 6.7 | > 10 | 1.02 | > 50 | 
18 | CN1C(=O)NC(c2ccc(C(F)(F)F)cc2)C2=C1c1ccccc1C2=O (stereo not given) |  | 29600 |  | > 10 |  |  | 

— ChEMBL document CHEMBL5120785, “Rational design, synthesis, antiproliferative activity against MCF-7, MDA-MB-231 cells, estrogen receptors binding affinity, and computational study of indenopyrimidine-2,5-dione analogs for the treatment of breast cancer” (Bioorg Med Chem Lett, 2022)
